According to paper PMC10674894 (Viruses, 2023):

Columns and labels:
Vero cells = test: Cytotoxicity MTT assay in Vero cells (MNTD, CC50); assay type: cell-based, African green monkey
CHIKV DRDE-07 = test: In vitro screening against CHIKV (CPE inhibition and MTT cell viability); assay type: cell-based, chikungunya virus; conditions: for % Cell viability / CPE: Table S1, CHIKV-infected Vero cells; for % Cell viability / Cell Viability: 72 hpi; for % Cell viability: MTT assay; for CPE: arbitrary score of cytopathic effect at >48 hpi; for Cell Viability: CHIKV-infected Vero cells treated at MNTD, MTT, cell control + DMSO = 100%
[1] = maximum nontoxic dose in Vero cells, MTT

Row | Molecule | MNTD (Vero cells; Table S1, Vero cells) | % Cell viability (CHIKV DRDE-07) | CPE (CHIKV DRDE-07) | MNTD (Vero cells; [1]) | Cell Viability (CHIKV DRDE-07)
1 | CC(=O)Cc1noc(-c2cccc([N+](=O)[O-])c2)n1 [DCR81, 1-[5-(3-nitrophenyl)-1,2,4-oxadiazol-3-yl]propan-2-one] | 125 µM | 0% | ++++ (>60% (++++)) | – | –
2 | CC(=O)Cc1noc(-c2ccccn2)n1 [DCR84, 1-[5-(pyridin-2-yl)-1,2,4-oxadiazol-3-yl]propan-2-one] | 125 µM | 2.86% | ++++ (>60% (++++)) | – | –
3 | O=C(NNC(=O)c1cccnc1)c1ccc(Cl)cc1 [DCR6, N'-(4-chlorobenzoyl)nicotinohydrazide] | 31.25 µM | 16.98% | ++++ (>60% (++++)) | – | –
4 | O=C(N/N=C/c1ccc(Cl)cc1)c1cccnc1 [DCR25, (E)-N'-(4-chlorobenzylidene)nicotinohydrazide] | 62.5 µM | 30.15% | ++++ (>60% (++++)) | – | –
5 | (E)-N'-(5-bromo-2-methoxybenzylidene)nicotinohydrazide [DCR24] | 15.6 µM | 25.23% | ++++ (>60% (++++)) | – | –
6 | CC1CN(c2ccc(C#N)c(Cl)c2)CC(C)N1 (centres unmarked) [DCR148, 2-Chloro-4-(3,5-dimethyl-piperazin-1-yl)-benzonitrile] | 125 µM | 14.42% | ++++ (>60% (++++)) | – | –
7 | N#Cc1c(F)cccc1N1CCCCC1 [DCR141, 2-Fluoro-6-piperidin-1-yl-benzonitrile] | 125 µM | 19.24% | ++++ (>60% (++++)) | – | –
8 | O=C(NNC(=O)c1ccncc1)c1ccccc1 [DCR9, N'-benzoylisonicotinohydrazide] | 31.25 µM | 9.92% | ++++ (>60% (++++)) | – | –
9 | O=C(c1cccnc1)n1nc(-c2ccc(O)cc2)cc1-c1ccccc1 [DCR55, 4-[5-phenyl-1-(pyridine-3-carbonyl)-1H-pyrazol-3-yl]phenol] | 31.25 µM | 17.69% | ++++ (>60% (++++)) | – | –
10 | N#Cc1cc(F)ccc1N1CCCCC1 [DCR145, 5-Fluoro-2-piperidin-1-yl-benzonitrile] | 125 µM | 0% | ++++ (>60% (++++)) | – | –
11 | CCOc1ccc(C2NC(=O)Oc3ccc4ccccc4c32)cc1 (centres unmarked) [DCR69, 1-(4-ethoxyphenyl)-1H,2H,3H-naphtho[1,2-e][1,3]oxazin-3-one] | 195.71 µM | 7.61% | ++++ (>60% (++++)) | – | –
12 | O=C(N/N=C/c1ccco1)c1ccncc1 [DCR36, (E)-N'-(furan-2-ylmethylene)isonicotinohydrazide] | 62.5 µM | 5% | ++++ (>60% (++++)) | – | –
13 | Cc1ccc(-c2cc(-c3ccc(O)cc3)nn2C(=O)c2cccnc2)cc1 [DCR57, 4-[5-(4-methylphenyl)-1-(pyridine-3-carbonyl)-1H-pyrazol-3-yl]phenol] | 31.25 µM | 24.84% | ++++ (>60% (++++)) | – | –
14 | O=C1NC(c2cccc(Cl)c2)c2c(ccc3ccccc23)O1 (centres unmarked) [DCR68, 1-(3-chlorophenyl)-1H,2H,3H-naphtho[1,2-e][1,3]oxazin-3-one] | 53.27 µM | 10.84% | ++++ (>60% (++++)) | – | –
15 | CC(=O)Cc1noc(-c2ccccc2)n1 [DCR78, 1-(5-phenyl-1,2,4-oxadiazol-3-yl)propan-2-one] | 125 µM | 17.32% | ++++ (>60% (++++)) | – | –
16 | N#Cc1ccccc1NCc1ccccc1 [DCR147, 2-Benzylamino-benzonitrile] | 125 µM | 17.97% | ++++ (>60% (++++)) | – | –
17 | CC(C)C1c2c(ccc3ccccc23)Oc2ccc3ccccc3c21 [DCR120, 2‐(propan‐2‐yl)‐13‐oxapentacyclo[12.8.0.0³,¹².0⁴,⁹.0¹⁷,²²]docosa‐1(14),3,5,7,9,11,15,17(22),18,20‐decaene] | 31.25 µM | 19.24% | ++++ (>60% (++++)) | – | –
18 | COc1cccc(C2C3=C(CC(C)(C)CC3=O)OC3=C2C(=O)CC(C)(C)C3)c1 [DCR125, 9‐(3‐methoxyphenyl)‐3,3,6,6‐tetramethyl‐2,3,4,5,6,7,8,9‐octahydro‐1H‐xanthene‐1,8‐dione] | 125 µM | 11.19% | ++++ (>60% (++++)) | – | –
19 | O=[N+]([O-])c1ccc(N2CCCCC2)c([N+](=O)[O-])c1 [DCR144, 1-(2,4-Dinitro-phenyl)-piperidine] | 125 µM | 25.21% | ++++ (>60% (++++)) | – | –

Row | Molecule | MNTD (Vero cells; Table S1, Vero cells) | % Cell viability (CHIKV DRDE-07) | CPE (CHIKV DRDE-07) | MNTD (Vero cells; [1]) | Cell Viability (CHIKV DRDE-07)
20 | Fc1cccc(C2c3c(ccc4ccccc34)Oc3ccc4ccccc4c32)c1 [DCR119, 2‐(3‐fluorophenyl)‐13‐oxapentacyclo[12.8.0.0³,¹².0⁴,⁹.0¹⁷,²²]docosa‐1(14),3,5,7,9,11,15,17(22),18,20‐decaene] | 31.25 µM | 18.74% | ++++ (>60% (++++)) | – | –
21 | C#CCOC(=O)C1=C(C)NC(=O)NC1c1ccccc1 (centres unmarked) [DCR92, prop-2-yn-1-yl 6-methyl-2-oxo-4-phenyl-1,2,3,4-tetrahydropyrimidine-5-carboxylate] | 462.48 µM | 12.8% | ++++ (>60% (++++)) | – | –
22 | COc1ccc(C2NC(=O)NC(C)=C2C(=O)OCC[N+](C)(C)C)cc1 (centres unmarked) [DCR107, {2‐[4‐(4‐methoxyphenyl)‐6‐methyl‐2‐oxo‐1,2,3,4‐tetrahydropyrimidine‐5‐carbonyloxy]ethyl}trimethylazanium] | 62.5 µM | 13.22% | ++++ (>60% (++++)) | – | –
23 | CC1=C(C(=O)OCCN(C)C)C(c2ccc(N(C)C)cc2)NC(=S)N1 (centres unmarked) [DCR111, 2‐(dimethylamino)ethyl 4‐[4‐(dimethylamino)phenyl]‐6‐methyl‐2‐sulfanylidene‐1,2,3,4‐tetrahydropyrimidine‐5‐carboxylate] | 62.5 µM | 10.08% | ++++ (>60% (++++)) | – | –
24 | O=C(N/N=C/c1ccccc1Br)c1ccncc1 [DCR38, (E)-N'-(2-bromobenzylidene)isonicotinohydrazide] | 31.25 µM | 25.1% | ++++ (>60% (++++)) | – | –
25 | COc1ccc(C2NC(=O)NC(C)=C2C(=O)OCC(C)C)cc1 (centres unmarked) [DCR99, 2-methylpropyl 4-(4-methoxyphenyl)-6-methyl-2-oxo-1,2,3,4-tetrahydropyrimidine-5-carboxylate] | 392.64 µM | 11.29% | ++++ (>60% (++++)) | – | –
26 | Cc1ccccc1/C=N/NC(=O)c1cccnc1 [DCR15, (E)-N'-(2-methylbenzylidene)nicotinohydrazide] | 31.25 µM | 14.76% | ++++ (>60% (++++)) | – | –
27 | CCOc1cc(C2C3=C(CC(C)(C)CC3=O)OC3=C2C(=O)CC(C)(C)C3)ccc1O [DCR130, 9‐(3‐ethoxy‐4‐hydroxyphenyl)‐3,3,6,6‐tetramethyl‐2,3,4,5,6,7,8,9‐octahydro‐1H‐xanthene‐1,8‐dione] | 15.6 µM | 17.21% | ++++ (>60% (++++)) | – | –
28 | O=C(NNC(=O)c1ccccc1Cl)c1cccnc1 [DCR5, N'-(2-chlorobenzoyl)nicotinohydrazide] | 31.25 µM | 13.49% | ++++ (>60% (++++)) | – | –
29 | C/C(=N\NC(=O)c1ccncc1)c1ccc(O)cc1 [DCR50, (E)-N'-(1-(4-hydroxyphenyl)ethylidene)isonicotinohydrazide] | 62.5 µM | 18.01% | ++++ (>60% (++++)) | – | –
30 | Fc1ccc(C2c3c(ccc4ccccc34)Oc3ccc4ccccc4c32)cc1 [DCR117, 2‐(4‐fluorophenyl)‐13‐oxapentacyclo[12.8.0.0³,¹².0⁴,⁹.0¹⁷,²²]docosa‐1(14),3,5,7,9,11,15,17(22),18,20‐decaene] | 125 µM | 14.01% | ++++ (>60% (++++)) | – | –
31 | Cc1ccccc1/C=N/NC(=O)c1ccncc1 [DCR30, (E)-N'-(2-methylbenzylidene)isonicotinohydrazide] | 62.5 µM | 23.8% | ++++ (>60% (++++)) | – | –
32 | COc1cc(/C=N/NC(=O)c2cccnc2)cc(OC)c1OC [DCR27, (E)-N'-(3,4,5-trimethoxybenzylidene)nicotinohydrazide] | 31.25 µM | 21.26% | ++++ (>60% (++++)) | – | –
33 | CC1(C)CC(=O)C2=C(C1)OC1=C(C(=O)CC(C)(C)C1)C2c1ccccn1 [DCR132, 3,3,6,6‐tetramethyl‐9‐(pyridin‐2‐yl)‐2,3,4,5,6,7,8,9‐octahydro‐1H‐xanthene‐1,8‐dione] | 125 µM | 9.06% | ++++ (>60% (++++)) | – | –
34 | O=C(N/N=C/c1cccc(Br)c1)c1ccncc1 [DCR37, (E)-N'-(3-bromobenzylidene)isonicotinohydrazide] | 31.25 µM | 14.36% | ++++ (>60% (++++)) | – | –
35 | CC1=C(C(=O)OCCN(C)C)C(c2ccc(N(C)C)cc2)NC(=O)N1 (centres unmarked) [DCR109, 2‐(dimethylamino)ethyl 4‐[4‐(dimethylamino)phenyl]‐6‐methyl‐2‐oxo‐1,2,3,4‐tetrahydropyrimidine‐5‐carboxylate] | 62.5 µM | 15.11% | ++++ (>60% (++++)) | – | –
36 | Clc1ncccc1Oc1cc2c(c3ncccc13)Oc1ncccc1O2 [DCR 3, 7-[(2-chloropridin-3-yl)oxy]-5,12-dioxa-1,11-diazatetraphene] | 50 µM | – | ++ (50-30% (++)) | 50 µM | 69.9%
37 | Brc1cc2c(c3ncccc13)Oc1cc(Br)c3cccnc3c1O2 [DCR 2, 5,12-dibromo-[1,4]dioxino[2,3-h:5,6-h’]diquinoline] | 50 µM | – | ++ (50-30% (++)) | 50 µM | 63%
